Like-named read-outs stand apart in the source and are kept apart here.
Experiments:
[1] = tested on: A549 lung cancer cell line; test: MTT anti-proliferative assay, lung cancer cell line A549; format: cell-based; settings: Homo sapiens, A549, read-out: IC50 (µM) A549, MTT assay, lung cancer cell line A549; average ± standard deviation of independent triplicates
[2] = tested on: T-47D breast cancer cell line; test: MTT anti-proliferative assay, breast cancer cell line T-47D; format: cell-based; settings: Homo sapiens, T47D

IC50 [1] [µM] | IC50 ([2]; read-out: IC50 (µM) T-47D, MTT assay, breast cancer cell line T-47D, average ± standard deviation of independent triplicates) [µM] | SMILES | IC50 ([2]; read-out: IC50 (µM) T-47D) [µM]
5.73 ± 0.69 | 8.14 ± 0.97 | C#Cc1cccc(Nc2ncnc3cc(OCCOC)c(OCCOC)cc23)c1 [Erlotinib] | 
 |  | CN[C@@H]1C[C@H]2O[C@@](C)([C@@H]1OC)n1c3ccccc3c3c4c(c5c6ccccc6n2c5c31)C(=O)NC4 [Staurosporine] | 6.83 ± 1.03

Source: publication PMC9123247 (Drug Design, Development and Therapy, 2022)
